Assay results from the supplement of paper PMC10307832.

Columns and labels:
Assay in all cases: relative viability (nuclei count vs DMSO), 5 days (fraction); higher = more cells survive
[1] = compound: O=C(C[C@H]1NCCC[C@@H]1O)Cn1cnc2cc(Br)c(Cl)cc2c1=O (racemic) [Halofuginone] + Cc1cc(Nc2cc(N3CCN(C)CC3)nc(Sc3ccc(NC(=O)C4CC4)cc3)n2)n[nH]1 [Tozasertib] (partner 0.1 µM)
In short: (§1)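 The day after seeding in 1536-well plates, lung cancer cell lines were treated by pin tool with a single drug, or with a fixed anchor-drug dose together with five library-drug doses (not always all listed) in √10 steps. After 5 days, a combined fix-and-stain solution (final 0.05% Triton X-100, 1% formaldehyde, 1 ug/ml Hoechst) was added. Nuclei counted on 4× images gave relative viability as treated counts over vehicle counts, reported as the median of duplicate plates.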

[2] = compound: O=C(C[C@H]1NCCC[C@@H]1O)Cn1cnc2cc(Br)c(Cl)cc2c1=O (racemic) [Halofuginone] + CS(=O)(=O)N1CCN(Cc2cc3nc(-c4cccc5[nH]ncc45)nc(N4CCOCC4)c3s2)CC1 [Pictilisib] (partner 1 µM)
In short: as §1

Cediranib + Olaparib = compound: COc1cc2c(Oc3ccc4[nH]c(C)cc4c3F)ncnc2cc1OCCCN1CCCC1 [Cediranib] + O=C(c1cc(Cc2n[nH]c(=O)c3ccccc23)ccc1F)N1CCN(C(=O)C2CC2)CC1 [Olaparib] (partner 8 µM)
In short: as §1

Cediranib = compound: COc1cc2c(Oc3ccc4[nH]c(C)cc4c3F)ncnc2cc1OCCCN1CCCC1 [Cediranib]
In short: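 A plate was accepted only when its control CV was below 25% and the cells had doubled at least once. Viability is defined from nuclear counts as treated wells divided by vehicle wells, with the median taken across plates. That median covers lung cancer cell lines grown in 1536-well plates, dosed by pinning at five √10-spaced library-drug concentrations, and counted in MetaXpress from 4× Hoechst images after 5 days.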

Row | Cell Line | relative viability ([1]; first compound 0.001 µM) | relative viability ([1]; first compound 0.003162 µM) | relative viability ([1]; first compound 0.01 µM) | relative viability ([1]; first compound 0.03162 µM) | relative viability ([1]; first compound 0.1 µM) | relative viability ([2]; first compound 0.001 µM) | relative viability ([2]; first compound 0.003162 µM) | relative viability ([2]; first compound 0.01 µM) | relative viability ([2]; first compound 0.03162 µM) | relative viability ([2]; first compound 0.1 µM) | relative viability (Cediranib + Olaparib; first compound 0.04 µM) | relative viability (Cediranib + Olaparib; first compound 0.1265 µM) | relative viability (Cediranib + Olaparib; first compound 0.4 µM) | relative viability (Cediranib + Olaparib; first compound 1.265 µM) | relative viability (Cediranib + Olaparib; first compound 4 µM) | relative viability (Cediranib; 0.04 µM) | relative viability (Cediranib; 0.1265 µM) | relative viability (Cediranib; 0.4 µM) | relative viability (Cediranib; 1.265 µM) | relative viability (Cediranib; 4 µM)
1 | NCI-H2087 | 0.28 | 0.322 | 0.251 | 0.23 | 0.114 | 0.986 | 1.01 | 0.799 | 1 | 0.831 | 0.609 | 0.62 | 0.575 | 0.567 | 0.708 | 1.09 | 1.18 | 0.776 | 1.14 | 1.27
2 | NCI-H2126 | 0.918 | 0.845 | 0.859 | 0.793 | 0.62 | 0.562 | 0.486 | 0.533 | 0.485 | 0.427 | 0.944 | 0.92 | 0.912 | 0.802 | 0.957 | 0.971 | 0.987 | 0.955 | 0.809 | 0.957
3 | NCI-H2170 | 0.731 | 0.678 | 0.812 | 0.679 | 0.728 | 0.311 | 0.313 | 0.313 | 0.32 | 0.26 | 0.575 |  | 0.533 | 0.598 | 0.726 | 1 | 0.764 | 0.983 | 0.828 | 1.03
4 | NCI-H2228 | 0.321 | 0.324 | 0.19 | 0.133 | 0.0815 | 0.355 | 0.455 | 0.398 | 0.224 | 0.095 | 0.801 | 1.02 | 0.642 | 0.707 | 0.556 | 1.18 | 1.08 | 0.763 | 1.06 | 1.13
5 | NCI-H2347 | 0.558 | 0.521 | 0.662 | 0.692 | 0.418 | 0.759 | 0.636 | 0.445 | 0.699 | 0.374 | 0.571 | 0.675 | 0.59 | 0.577 | 0.619 | 1.02 | 0.84 | 0.983 | 1.02 | 1.11
6 | NCI-H2405 | 0.906 | 0.776 | 0.682 | 0.775 | 0.64 | 0.522 | 0.504 | 0.512 | 0.478 | 0.421 | 0.888 | 0.897 | 0.766 | 0.888 | 0.876 | 0.999 | 0.914 | 0.994 | 1 | 1.02
